Test results published in ChEMBL document CHEMBL3044904, “Mild and highly efficient copper (II) sulfate catalyzed one pot synthesis of 2-aryl benzimidazole using atmospheric air as an oxidant and its antibacterial study” (2013).
In brackets after ≈: the same amount, converted by molar mass.

Experiments:
Type in all cases: functional
Staphylococcus aureus = experiment: Antibacterial activity against Staphylococcus aureus ATCC 11632 assessed as growth inhibition after 24 hr by two-fold serial dilution method; settings: ATCC 11632, 24 h
Pseudomonas aeruginosa = experiment: Antibacterial activity against Pseudomonas aeruginosa ATCC 23564 assessed as growth inhibition after 24 hr by two-fold serial dilution method; settings: ATCC 23564, 24 h
Escherichia coli = experiment: Antibacterial activity against Escherichia coli ATCC 35218 assessed as growth inhibition after 24 hr by two-fold serial dilution method; settings: ATCC 35218, 24 h
Enterococcus faecalis = experiment: Antibacterial activity against Enterococcus feacalis clinical isolate assessed as growth inhibition after 24 hr by two-fold serial dilution method
Salmonella typhi = experiment: Antibacterial activity against Salmonella enterica subsp. enterica serovar Typhi ATCC 15499 assessed as growth inhibition after 24 hr by two-fold serial dilution method; settings: ATCC 15499, 24 h
Bacillus cereus = experiment: Antibacterial activity against Bacillus cereus MTCC 7350 assessed as growth inhibition after 24 hr by two-fold serial dilution method; settings: MTCC 7350, 24 h

| SMILES | MIC (Staphylococcus aureus) | MIC (Pseudomonas aeruginosa) | MIC (Escherichia coli) | MIC (Enterococcus faecalis) | MIC (Salmonella typhi) | MIC (Bacillus cereus) |
| --- | --- | --- | --- | --- | --- | --- |
| Oc1ccc(-c2nc3ccccc3[nH]2)cc1 | 25 µg/mL (≈ 119 µM) | 25 µg/mL (≈ 119 µM) | 400 µg/mL (≈ 1900 µM) | 100 µg/mL (≈ 476 µM) | 400 µg/mL (≈ 1900 µM) | 50 µg/mL (≈ 238 µM) |
| Clc1ccc(-c2nc3ccccc3[nH]2)cc1 | 12.5 µg/mL (≈ 54.7 µM) | 12.5 µg/mL (≈ 54.7 µM) | 25 µg/mL (≈ 109 µM) | 12.5 µg/mL (≈ 54.7 µM) | 25 µg/mL (≈ 109 µM) | 6.25 µg/mL (≈ 27.3 µM) |
| c1ccc(-c2nc3ccccc3[nH]2)cc1 | 12.5 µg/mL (≈ 64.4 µM) | 12.5 µg/mL (≈ 64.4 µM) | 50 µg/mL (≈ 257 µM) | 12.5 µg/mL (≈ 64.4 µM) | 6.25 µg/mL (≈ 32.2 µM) | 50 µg/mL (≈ 257 µM) |
| CC1(C)S[C@@H]2[C@H](NC(=O)[C@H](N)c3ccccc3)C(=O)N2[C@H]1C(=O)O [AMPICILLIN] | 50 µg/mL (≈ 143 µM) | 50 µg/mL (≈ 143 µM) | 400 µg/mL (≈ 1140 µM) | 400 µg/mL (≈ 1140 µM) | 6.25 µg/mL (≈ 17.9 µM) | 50 µg/mL (≈ 143 µM) |
| Oc1ccccc1-c1nc2ccccc2[nH]1 | 25 µg/mL (≈ 119 µM) | 25 µg/mL (≈ 119 µM) | 400 µg/mL (≈ 1900 µM) | 50 µg/mL (≈ 238 µM) | 400 µg/mL (≈ 1900 µM) | 6.25 µg/mL (≈ 29.7 µM) |
| Cc1ccc(-c2nc3ccccc3[nH]2)cc1 | 25 µg/mL (≈ 120 µM) | 12.5 µg/mL (≈ 60 µM) | 50 µg/mL (≈ 240 µM) | 50 µg/mL (≈ 240 µM) | 50 µg/mL (≈ 240 µM) | 200 µg/mL (≈ 960 µM) |
| COc1ccc(-c2nc3ccccc3[nH]2)cc1 | 12.5 µg/mL (≈ 55.7 µM) | 25 µg/mL (≈ 111 µM) | 50 µg/mL (≈ 223 µM) | 25 µg/mL (≈ 111 µM) | 25 µg/mL (≈ 111 µM) | 50 µg/mL (≈ 223 µM) |
| O=C(O)c1cn(C2CC2)c2cc(N3CCNCC3)c(F)cc2c1=O [CIPROFLOXACIN] |  | 1.25 µg/mL (≈ 3.77 µM) |  |  | 3.12 µg/mL (≈ 9.42 µM) |  |
| O=[N+]([O-])c1ccc(-c2nc3ccccc3[nH]2)cc1 | 50 µg/mL (≈ 209 µM) | 12.5 µg/mL (≈ 52.3 µM) | 50 µg/mL (≈ 209 µM) | 25 µg/mL (≈ 105 µM) | 25 µg/mL (≈ 105 µM) | 25 µg/mL (≈ 105 µM) |
| C(=C\c1ccc(-c2nc3ccccc3[nH]2)cc1)/c1ccccc1 | 12.5 µg/mL (≈ 42.2 µM) | 12.5 µg/mL (≈ 42.2 µM) | 50 µg/mL (≈ 169 µM) | 25 µg/mL (≈ 84.4 µM) | 25 µg/mL (≈ 84.4 µM) | 6.25 µg/mL (≈ 21.1 µM) |
